Reference: patent US6514942B1, “Methods and compositions for stimulating T-lymphocytes” (The Board of Regents, The University of Texas System, priority 1995, dated 2003)

Tests used:
HLA-A2 of T2 cells = biological target: T1, HLA-A2 of T2 cells (Homo sapiens, UniProt P04439, D140Y/D185E/D98H/E176V/E277Q/G131W/G231S/I119V/I121R/I166T/I218V/L300P/L318F/N151K/N90K/P208A/P217A/Q86G/Q94H/R138H/R169H/T345S); assay: Reactivity of MA2.1 mAb with T2 cells after culture with peptide (immunofluorescence, FL1); type: cell-based; conditions: peptide 50 μg/ml, overnight culture in IMDM-FCS
T1 construct: cell surface expression of HLA-A2 is lower (30-40%) than in normal LBL lines transfected with HLA-A2; endogenous in cells; host or cells: T2 (transport deletion mutant) human lymphoblastoid cells, obtained from Dr. Peter Creswell

OVA-31, HER-2high = assay: Lysis of peptide pre-pulsed autologous tumor by CTL-TAL (HLA-A2- system); type: cell-based, human; conditions: OVA-31 pre-pulsed with peptide
Procedure: (§1) Tumor cells and fibroblasts were labeled with 200 μCi of ^51Cr (Na^51CrO4; Amersham, Arlington Heights, Ill.) for 90 min at 37° C. (Ioannides et al., 1991). Lymphoblastoid cells and HLA-A2 transfectants were labeled overnight in RPMI-FCS, then washed three times and incubated with effector cells in RPMI-FCS in an incubator with 5%. CO2 (Bednarek et al., 1991; Gammon et al., 1992). When peptide recognition was determined, targets were incubated with 25 μM of peptides overnight during ^51Cr labeling or with 10 μM peptide for 2 h at 37° C. in RPMI-FCS then washed three times before being incubated with effector cells. Separate controls for spontaneous and total lysis were made for each peptide-pulsed target (Ioannides et al., 1991; Bednarek et al., 1991; Gammon et al., 1992). After 4-5 h, 100 μl of supernatant was collected and counted. To determine maximum lysis in 20-h assays, plates were left undisturbed in the incubator and the supernatant was collected after overnight incubation. For cold target inhibition studies, C1R:A2 cells were preincubated with HER-2 or control peptides overnight, then washed and admixed with ^51Cr-labeled targets at 2:1 and 6:1 (cold:hot targets) ratios. Percentage lysis was calculated from the formula: 100×[(E−S)/(T−S)], where E is experimental release, S is release in the absence of CTL, and T is release in 2 M HCl.
To address whether these peptides interfere with tumor lysis by autologous tumor reactive CTL-TAL in HLA-A2^− systems, the lysis of OVA-1, HER-2^high (HLA-A1, 24, B8, 35, Cw4) and OVA-31, HER-2^high was determined by pre-pulsing with either C43 or as a control, C44 peptide (VS→II). Target lysis by CTL-1 was: OVA-1 (68%), K562 (18%), OVA-1 plus C43 (37%), and OVA-1 plus C44 (51%). […] However, C43 and C44 had no effect on lysis of OVA-31 by CTL-31.

C1R:A2 cells = assay: Ag specificity of the 41.CD8+ CTL line on peptide-pulsed targets; type: cell-based, human; conditions: peptide-pulsed C1R:A2, E:T 10:1
Procedure: FIG. 2A. Ag specificity of the 41.CD8^+ CTL line. C1R:A2 cells were pre-pulsed with either HER-2 peptides or control MUC-1 peptides before being incubated with effectors. The effector to target ratio was 10:1. C1R:A1 and C1R:A3 targets were pre-pulsed with the same peptides in the same conditions as C1R:A2 cells. Results for C1R:A1 and C1R:A3 show the difference between specific lysis of targets preincubated with peptides and control C1R:A1 and C1R:A3 targets. Specific lysis of control C1R:A1 and C1R:A3 cells was less than 10% at the same E:T ratio. Shown in FIG. 2A are results after 4 hrs' incubation.
as §1
These cultures were propagated and expanded by periodic cycles of restimulation with peptide-pulsed fresh autologous PBMC as antigen-presenting cells. After the fourth stimulation cells were gradually adapted to growth in RPMI-FCS by replacing 25% of the culture medium every 3 days with RPMI-FCS over a period of 2 weeks. CD3^+CD8^+CD4^− cells were isolated from bulk CTL cultures by positive selection on anti-CD8 mAb-coated culture flasks (AIS Micro CELLector, Applied Immune Sciences, Menlo Park, Calif.) as described (Letessier et al., 1991). Isolated CD8^+ cells were restimulated with HER-2 peptide-pulsed PBMC, either autologous or in some instances allogeneic that matched only HLA-A2 with the responding cells. […]

Sequence	FL1 of T2 cells stained with MA2.1 mAb (HLA-A2 of T2 cells)	effect on lysis of OVA-31 by CTL-31 (OVA-31, HER-2high)	recognition by 41.CD8+ CTL line (C1R:A2 cells)
RFRELVSEFSRMAR [Peptide C43, HER-2:968-981 14mer peptide]	failed to significantly increase FL1	no effect	recognized
ELVSEFSRV [Peptide C84, HER-2:971-979 analog, Met(P9) substituted by Val]	significant increase in FL1	–	recognized
